Results from ChEMBL document CHEMBL1201862, “PubChem BioAssay data set” (2004).
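A five-concentration, 48-hour dose response in 96-well plates underlies each endpoint, interpolated linearly between surrounding concentrations. At the GI50, growth is halved.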 The source made the active and inactive calls. Cut-off read from the data, not from the text of the source: active = GI50 up to about 1.1 µM and inactive = higher.

How the values were obtained:
Assay in all cases: DTP human tumour cell line panel, 48 h
786-0 = test system: 786-0
A498 = test system: A498
A549 = test system: A549
ACHN = test system: ACHN
CAKI-1 = test system: CAKI-1
CCRF-CEM = test system: CCRF-CEM
DLD-1 = test system: DLD-1
DMS-114 = test system: DMS-114
DMS-273 = test system: DMS-273
EKVX = test system: EKVX
HCC 2998 = test system: HCC 2998
HCT-116 = test system: HCT-116
HCT-15 = test system: HCT-15
HL-60 = test system: HL-60
HOP-18 = test system: HOP-18
HOP-62 = test system: HOP-62
HOP-92 = test system: HOP-92
HT-29 = test system: HT-29
IGROV-1 = test system: IGROV-1
K562 = test system: K562
KM-20L2 = test system: KM-20L2
KM12 = test system: KM12
LOX IMVI = test system: LOX IMVI
LXFL 529 = test system: LXFL 529
M14 = test system: M14
M19-MEL = test system: M19-MEL
MOLT-4 = test system: MOLT-4
Malme-3M = test system: Malme-3M
NCI-H226 = test system: NCI-H226
NCI-H23 = test system: NCI-H23
NCI-H460 = test system: NCI-H460
NCI-H522 = test system: NCI-H522
OVCAR-4 = test system: OVCAR-4
OVCAR-5 = test system: OVCAR-5
OVCAR-8 = test system: OVCAR-8
RPMI-8226 = test system: RPMI-8226
RXF 393 = test system: RXF 393
RXF 631 = test system: RXF 631
SF-268 = test system: SF-268
SF-295 = test system: SF-295
SF-539 = test system: SF-539
SK-MEL-28 = test system: SK-MEL-28
SK-MEL-2 = test system: SK-MEL-2
SK-MEL-5 = test system: SK-MEL-5
SK-OV-3 = test system: SK-OV-3
SN12C = test system: SN12C
SNB-19 = test system: SNB-19
SNB-75 = test system: SNB-75
SNB-78 = test system: SNB-78
SR = test system: SR
SW-620 = test system: SW-620
TK-10 = test system: TK-10
U-251 = test system: U-251
UACC-257 = test system: UACC-257
UACC-62 = test system: UACC-62
UO-31 = test system: UO-31
XF498 = test system: XF498

Question: Which GI50 (786-0) does the source give for `CN(C)C1=NC2=S(SC(Nc3ccccc3)=N2)S1` (configuration not stated) here?
Answer: 28.8 µM (inactive)

Question: What about the GI50 (A498) of the same compound?
Answer: 14.6 µM (inactive)

Question: What about the GI50 (A549) of the same compound?
Answer: 7.85 µM (inactive)

Question: What about the GI50 (ACHN) of the same compound?
Answer: 11.9 µM (inactive)

Question: And the GI50 (CAKI-1)?
Answer: 26.5 µM (inactive)

Question: And the GI50 (CCRF-CEM)?
Answer: 15.5 µM (inactive)

Question: What about the GI50 (DLD-1) of the same compound?
Answer: 27.2 µM (inactive)

Question: And the GI50 (DMS-114)?
Answer: 3.47 µM (inactive)

Question: And the GI50 (DMS-273)?
Answer: 14.8 µM (inactive)

Question: What about the GI50 (EKVX) of the same compound?
Answer: 12.9 µM (inactive)

Question: And the GI50 (HCC 2998)?
Answer: 21 µM (inactive)

Question: What about the GI50 (HCT-116) of the same compound?
Answer: 10.5 µM (inactive)

Question: What about the GI50 (HCT-15) of the same compound?
Answer: 11.9 µM

Question: What about the GI50 (HL-60) of the same compound?
Answer: 10 µM (inactive)

Question: And the GI50 (HOP-18)?
Answer: 25 µM (inactive)

Question: And the GI50 (HOP-62)?
Answer: 24.2 µM (inactive)

Question: What about the GI50 (HOP-92) of the same compound?
Answer: 22.7 µM (inactive)

Question: What about the GI50 (HT-29) of the same compound?
Answer: 33.6 µM (inactive)

Question: And the GI50 (IGROV-1)?
Answer: 15.7 µM (inactive)

Question: What about the GI50 (K562) of the same compound?
Answer: 6.62 µM (inactive)

Question: And the GI50 (KM-20L2)?
Answer: 32.9 µM (inactive)

Question: And the GI50 (KM12)?
Answer: 26.4 µM (inactive)

Question: What about the GI50 (LOX IMVI) of the same compound?
Answer: 22.7 µM (inactive)

Question: What about the GI50 (LXFL 529) of the same compound?
Answer: 10 µM (inactive)

Question: What about the GI50 (M14) of the same compound?
Answer: 58.1 µM (inactive)

Question: And the GI50 (M19-MEL)?
Answer: 30 µM (inactive)

Question: And the GI50 (MOLT-4)?
Answer: 10.3 µM (inactive)

Question: And the GI50 (Malme-3M)?
Answer: 16.1 µM (inactive)

Question: What about the GI50 (NCI-H226) of the same compound?
Answer: 22.2 µM (inactive)

Question: And the GI50 (NCI-H23)?
Answer: 28.2 µM (inactive)

Question: And the GI50 (NCI-H460)?
Answer: 36.1 µM (inactive)

Question: What about the GI50 (NCI-H522) of the same compound?
Answer: 10.3 µM (inactive)

Question: And the GI50 (OVCAR-4)?
Answer: 19 µM (inactive)

Question: What about the GI50 (OVCAR-5) of the same compound?
Answer: 34.8 µM (inactive)

Question: And the GI50 (OVCAR-8)?
Answer: 26.6 µM (inactive)

Question: What about the GI50 (RPMI-8226) of the same compound?
Answer: 9.33 µM (inactive)

Question: What about the GI50 (RXF 393) of the same compound?
Answer: 32 µM (inactive)

Question: What about the GI50 (RXF 631) of the same compound?
Answer: > 100 µM (inactive)

Question: And the GI50 (SF-268)?
Answer: 34.5 µM (inactive)

Question: What about the GI50 (SF-295) of the same compound?
Answer: 24.5 µM (inactive)

Question: What about the GI50 (SF-539) of the same compound?
Answer: 20.2 µM (inactive)

Question: And the GI50 (SK-MEL-28)?
Answer: 17.2 µM (inactive)

Question: And the GI50 (SK-MEL-2)?
Answer: 7.62 µM (inactive)

Question: What about the GI50 (SK-MEL-5) of the same compound?
Answer: 5.87 µM (inactive)

Question: What about the GI50 (SK-OV-3) of the same compound?
Answer: 46.9 µM (inactive)

Question: And the GI50 (SN12C)?
Answer: 31.3 µM (inactive)

Question: What about the GI50 (SNB-19) of the same compound?
Answer: 26.3 µM (inactive)

Question: What about the GI50 (SNB-75) of the same compound?
Answer: 28.7 µM (inactive)

Question: And the GI50 (SNB-78)?
Answer: 34.4 µM (inactive)

Question: What about the GI50 (SR) of the same compound?
Answer: 17.1 µM (inactive)

Question: And the GI50 (SW-620)?
Answer: 46.5 µM (inactive)

Question: What about the GI50 (TK-10) of the same compound?
Answer: 27.9 µM (inactive)

Question: And the GI50 (U-251)?
Answer: 19.4 µM (inactive)

Question: And the GI50 (UACC-257)?
Answer: 7.8 µM (inactive)

Question: And the GI50 (UACC-62)?
Answer: 21.2 µM (inactive)

Question: What about the GI50 (UO-31) of the same compound?
Answer: 24 µM (inactive)

Question: And the GI50 (XF498)?
Answer: 14 µM (inactive)
